Like-named read-outs stand apart in the source and are kept apart here.
Tests used:
[1] = molecular target: T1, AChE from electric eel (EeAChE) (Electrophorus electricus, UniProt O42275); experiment: Inhibition of AChE, modified Ellman's spectrophotometric method; assay type: biochemical, electric eel (Electrophorus electricus L.); details: for Selectivity AChE/BuChE: SI = IC50 for AChE/IC50 for BuChE, SI lower than 1 means selectivity for AChE
T1 construct: Acetylcholinesterase was obtained from electric eel (Electrophorus electricus L.); purchased Sigma-Aldrich (Prague, Czech Republic); host or cells: electric eel (natural source)
Protocol: (§1) The IC50 values were determined using the spectrophotometric Ellman’s method modified according to Zdražilová et al., which is a simple, rapid and direct method to determine the SH and -S-S- group content in proteins. This method is widely used for the screening of the efficiency of cholinesterases inhibitors. The enzymatic activity is measured indirectly by quantifying the concentration of the 5-thio-2-nitrobenzoic acid ion formed in the reaction between the thiol reagent 5,5′-dithio-bis(2-nitrobenzoic acid) and thiocholine, a product of substrate hydrolysis (i.e., acetylthiocholine; ATCH) by cholinesterases.
(§2) The enzyme activity in final reaction mixture (2000 µL) was 0.2 U/mL, concentration of acetylthiocholine (or butyrylthiocholine, BTCH) 40 µM and concentration of 5,5′-dithio-bis(2-nitrobenzoic acid) 0.1 mM for all reactions. The tested compounds were dissolved in DMSO and then diluted in demineralized water to the concentration of 1 µM. […] All measurements were carried in triplicate and the average values of reaction rate (v0-uninhibited reaction, vi-inhibited reaction) were used for construction of the dependence v0/vi vs. concentration of inhibitor. From obtained equation of regression curve, the value of IC50 was calculated (based on the definition of IC50).
(§3) Acetylcholinesterase was obtained from electric eel (Electrophorus electricus L.) and butyrylcholinesterase was from an equine serum.
(§4) Thirty-six benzamides 1–4l were evaluated as potential inhibitors of AChE from electric eel (EeAChE) and BuChE from equine serum (EqBuChE) using Ellman’s spectrophotometric method modified according to Zdražilová et al.. Their efficacy is expressed as IC50, i.e., the concentration required for 50% inhibition of the enzymatic activity. Based on inhibition of both cholinesterases, we calculated selectivity indexes (SI) as the ratio of IC50 value for AChE/IC50 value for BuChE to express the selectivity quantitatively (Table 1).

[2] = molecular target: T2, BuChE from equine serum (EqBuChE) (Equus caballus, UniProt P81908); experiment: Inhibition of BuChE, modified Ellman's spectrophotometric method; assay type: biochemical; details: mean ± SD, n = three experiments
T2 construct: butyrylcholinesterase was from an equine serum; purchased Sigma-Aldrich (Prague, Czech Republic); host or cells: equine serum (natural source)
Protocol: as §1, §2, §3, §4

[3] = mean ± SD, n = three experiments, read-out: IC50 (EeAChE)

T1 sequence (O42275 24-633): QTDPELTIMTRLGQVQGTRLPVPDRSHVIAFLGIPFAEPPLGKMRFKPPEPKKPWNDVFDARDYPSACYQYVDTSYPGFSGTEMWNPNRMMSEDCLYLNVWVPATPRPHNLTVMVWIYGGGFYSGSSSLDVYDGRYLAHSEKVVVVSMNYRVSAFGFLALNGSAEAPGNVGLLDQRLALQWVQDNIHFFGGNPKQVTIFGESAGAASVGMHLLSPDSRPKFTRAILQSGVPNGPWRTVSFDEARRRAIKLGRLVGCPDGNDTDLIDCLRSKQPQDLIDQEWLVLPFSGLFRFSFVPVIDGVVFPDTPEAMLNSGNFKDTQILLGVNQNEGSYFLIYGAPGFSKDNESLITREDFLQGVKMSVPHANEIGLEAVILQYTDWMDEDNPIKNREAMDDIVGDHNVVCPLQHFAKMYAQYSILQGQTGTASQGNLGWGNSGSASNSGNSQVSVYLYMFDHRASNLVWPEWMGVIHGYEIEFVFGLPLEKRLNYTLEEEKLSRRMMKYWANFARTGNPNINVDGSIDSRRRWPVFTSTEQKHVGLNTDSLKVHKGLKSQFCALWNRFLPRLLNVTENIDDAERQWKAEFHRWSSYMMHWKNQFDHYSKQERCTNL
T2 sequence (P81908 whole entry): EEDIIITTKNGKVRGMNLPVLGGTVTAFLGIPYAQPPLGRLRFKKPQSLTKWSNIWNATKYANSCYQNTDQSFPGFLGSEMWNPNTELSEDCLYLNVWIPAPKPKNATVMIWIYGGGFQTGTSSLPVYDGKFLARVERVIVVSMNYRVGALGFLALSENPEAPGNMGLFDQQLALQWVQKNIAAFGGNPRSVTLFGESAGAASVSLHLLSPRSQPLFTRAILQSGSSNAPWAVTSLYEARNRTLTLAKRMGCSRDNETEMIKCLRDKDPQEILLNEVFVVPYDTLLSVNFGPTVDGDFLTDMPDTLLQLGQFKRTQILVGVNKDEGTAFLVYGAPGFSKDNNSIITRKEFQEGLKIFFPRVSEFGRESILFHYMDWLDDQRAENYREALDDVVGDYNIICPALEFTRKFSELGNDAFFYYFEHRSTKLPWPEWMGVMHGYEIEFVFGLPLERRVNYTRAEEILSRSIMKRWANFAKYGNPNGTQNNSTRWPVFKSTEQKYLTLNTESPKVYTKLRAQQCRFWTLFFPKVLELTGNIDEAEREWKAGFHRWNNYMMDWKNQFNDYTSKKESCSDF

SMILES | Selectivity AChE/BuChE [1] | IC50 [1, 3] [µM] | IC50 ([2]; read-out: IC50 (EqBuChE)) [µM] | IC50 [1] [µM] | IC50 ([2]; IC50 (EqBuChE)) [µM]
O=C1c2ccc(Cl)cc2OP(=O)(c2ccccc2)N1c1ccc(C(F)(F)F)cc1 (racemic) [Compound 5d, (RS)-7-Chloro-2-phenyl-3-[4-(trifluoromethyl)phenyl]-3-hydrobenzo[e][1,3,2]oxazaphosphinin-4-one 2-oxide] | 1.93 | 48.1 ± 1.7 | 25 ± 0.3 | – | –
O=C1c2ccc(Cl)cc2OP(=S)(c2ccccc2)N1c1ccc(C(F)(F)F)cc1 (racemic) [Compound 5e, (RS)-7-Chloro-2-phenyl-3-[4-(trifluoromethyl)phenyl]-3-hydrobenzo[e][1,3,2]oxazaphosphinin-4-one 2-sulfide] | 0.37 | 63.5 ± 1.41 | 170 ± 13.6 | – | –
O=C(Nc1ccccc1)c1ccccc1O [Compound 1, salicylanilide] | 0.24 | 49.7 ± 3.73 | 206 ± 12.1 | – | –
O=C(Nc1cccc(Cl)c1)c1cc(Cl)ccc1O [Compound 2a] | 0.26 | 59.5 ± 3.8 | 228 ± 11.3 | – | –
O=C(Nc1ccc(Cl)cc1)c1cc(Cl)ccc1O [Compound 2b] | 0.45 | – | – | 76.5 ± 2.17 | 170 ± 3.09
O=C(Nc1ccc(Cl)c(Cl)c1)c1cc(Cl)ccc1O [Compound 2c] | 0.33 | 60.8 ± 6.88 | 186 ± 15.7 | – | –
O=C(Nc1cc(Cl)cc(Cl)c1)c1cc(Cl)ccc1O [Compound 2d, 5-Chloro-N-(3,5-dichlorophenyl)-2-hydroxybenzamide] | 0.41 | 46.2 ± 0.63 | 112 ± 7.98 | – | –
O=C(Nc1cc(Cl)c(Cl)c(Cl)c1)c1cc(Cl)ccc1O [Compound 2e, 5-Chloro-N-(3,4,5-trichlorophenyl)-2-hydroxybenzamide] | 0.50 | 51.06 ± 0.49 | 102.7 ± 0.97 | – | –
O=C(Nc1cccc(Br)c1)c1cc(Cl)ccc1O [Compound 2f] | 0.35 | – | – | 50.03 ± 0.15 | 141 ± 1.13
O=C(Nc1ccc(Br)cc1)c1cc(Cl)ccc1O [Compound 2g] | 0.49 | 58.2 ± 4.87 | 119 ± 6.65 | – | –
O=C(Nc1cccc(F)c1)c1cc(Cl)ccc1O [Compound 2h] | 0.38 | – | – | 58.6 ± 3.98 | 154 ± 8.38
O=C(Nc1ccc(F)cc1)c1cc(Cl)ccc1O [Compound 2i] | 0.36 | – | – | 48.3 ± 8.9 | 133 ± 15.8
O=C(Nc1cccc(C(F)(F)F)c1)c1cc(Cl)ccc1O [Compound 2j] | 0.45 | – | – | 54.41 ± 0.25 | 120 ± 3.02
O=C(Nc1cc(C(F)(F)F)cc(C(F)(F)F)c1)c1cc(Cl)ccc1O [Compound 2l] | 0.78 | 50.2 ± 0.88 | 64.4 ± 1.34 | – | –
O=C(Nc1cccc(Cl)c1)c1ccc(Cl)cc1O [Compound 3a] | 0.43 | – | – | 58.1 ± 1.2 | 134.3 ± 0.24
O=C(Nc1ccc(Cl)cc1)c1ccc(Cl)cc1O [Compound 3b] | 0.37 | – | – | 56.2 ± 3.23 | 152 ± 3.13
O=C(Nc1ccc(Cl)c(Cl)c1)c1ccc(Cl)cc1O [Compound 3c] | 0.46 | 46.3 ± 0.56 | 100 ± 1.15 | – | –
O=C(Nc1cc(Cl)cc(Cl)c1)c1ccc(Cl)cc1O [Compound 3d, 4-Chloro-N-(3,5-dichlorophenyl)-2-hydroxybenzamide] | 0.36 | 50.15 ± 0.26 | 141 ± 2.8 | – | –
O=C(Nc1cc(Cl)c(Cl)c(Cl)c1)c1ccc(Cl)cc1O [Compound 3e, 4-Chloro-N-(3,4,5-trichlorophenyl)-2-hydroxybenzamide] | 0.44 | 57.8 ± 4.05 | 132 ± 4.31 | – | –

SMILES | Selectivity AChE/BuChE [1] | IC50 [1, 3] [µM] | IC50 ([2]; read-out: IC50 (EqBuChE)) [µM] | IC50 [1] [µM] | IC50 ([2]; IC50 (EqBuChE)) [µM]
O=C(Nc1cccc(Br)c1)c1ccc(Cl)cc1O [Compound 3f] | 0.36 | 60.03 ± 0.42 | 168 ± 2.06 | – | –
O=C(Nc1ccc(Br)cc1)c1ccc(Cl)cc1O [Compound 3g] | 0.34 | – | – | 58.3 ± 1.57 | 174 ± 4.02
O=C(Nc1cccc(F)c1)c1ccc(Cl)cc1O [Compound 3h] | 0.42 | – | – | 60.8 ± 1.74 | 146 ± 4.07
O=C(Nc1ccc(F)cc1)c1ccc(Cl)cc1O [Compound 3i] | 0.41 | – | – | 62.8 ± 1.53 | 152 ± 7.58
O=C(Nc1cccc(C(F)(F)F)c1)c1ccc(Cl)cc1O [Compound 3j] | 0.42 | – | – | 68.3 ± 3.78 | 163 ± 11.7
O=C(Nc1ccc(C(F)(F)F)cc1)c1ccc(Cl)cc1O [Compound 3k, 4-chloro-2-hydroxy-N-[4-(trifluoromethyl)phenyl]benzamide] | 0.30 | – | – | 60.3 ± 2.39 | 200 ± 2.02
O=C(Nc1cc(C(F)(F)F)cc(C(F)(F)F)c1)c1ccc(Cl)cc1O [Compound 3l] | 0.36 | 54.7 ± 2.05 | 150.5 ± 0.87 | – | –
O=C(Nc1cccc(Cl)c1)c1cc(Br)ccc1O [Compound 4a] | 0.46 | – | – | 62 ± 6.48 | 134 ± 1.63
O=C(Nc1ccc(Cl)cc1)c1cc(Br)ccc1O [Compound 4b] | 0.66 | – | – | 85.8 ± 6.1 | 131 ± 3.99
O=C(Nc1ccc(Cl)c(Cl)c1)c1cc(Br)ccc1O [Compound 4c] | 0.50 | 60.8 ± 3.65 | 123 ± 7.2 | – | –
O=C(Nc1cc(Cl)cc(Cl)c1)c1cc(Br)ccc1O [Compound 4d, 5-Bromo-N-(3,5-dichlorophenyl)-2-hydroxybenzamide] | 0.24 | 33.1 ± 0.47 | 135.9 ± 0.14 | – | –
O=C(Nc1cc(Cl)c(Cl)c(Cl)c1)c1cc(Br)ccc1O [Compound 4e, 5-Bromo-N-(3,4,5-trichlorophenyl)-2-hydroxybenzamide] | 0.30 | 42.1 ± 2.41 | 140 ± 6.2 | – | –
O=C(Nc1cccc(Br)c1)c1cc(Br)ccc1O [Compound 4f] | 0.48 | – | – | 69.7 ± 9.97 | 146 ± 3.53
O=C(Nc1ccc(Br)cc1)c1cc(Br)ccc1O [Compound 4g] | 0.63 | 70.3 ± 2.85 | 112 ± 1.79 | – | –
O=C(Nc1cccc(F)c1)c1cc(Br)ccc1O [Compound 4h] | 0.46 | – | – | 54.4 ± 0.73 | 119 ± 2.53
O=C(Nc1ccc(F)cc1)c1cc(Br)ccc1O [Compound 4i] | 0.45 | – | – | 61.2 ± 1.08 | 137 ± 1.47
O=C(Nc1cccc(C(F)(F)F)c1)c1cc(Br)ccc1O [Compound 4j, 5-bromo-2-hydroxy-N-[3-(trifluoromethyl)phenyl]benzamide] | 0.36 | – | – | 42.67 ± 0.18 | 117 ± 2.23
O=C(Nc1ccc(C(F)(F)F)cc1)c1cc(Br)ccc1O [Compound 4k] | 0.33 | – | – | 44.8 ± 3.44 | 134.8 ± 0.86
O=C(Nc1cc(C(F)(F)F)cc(C(F)(F)F)c1)c1cc(Br)ccc1O [Compound 4l] | 0.91 | – | – | 48.5 ± 1.07 | 53.5 ± 3.2
